This is an account of results in patent publication US9273057B2 (Bristol-Myers Squibb Company, priority 2012, dated 2016).

Where a name gives a salt, the structure may show the parent alone.

This experiment deals with CK2A1 (CK2α/β) (Homo sapiens, UniProt P68400). Briefly: CK2 kinase assay, CK2A1 (CK2α/β). As to conditions: Table A; read-out: CK2A1 (CK2α/β) (IC50). Format: biochemical.
Sequence of CK2A1 (CK2α/β) (P68400 whole entry, species assumed): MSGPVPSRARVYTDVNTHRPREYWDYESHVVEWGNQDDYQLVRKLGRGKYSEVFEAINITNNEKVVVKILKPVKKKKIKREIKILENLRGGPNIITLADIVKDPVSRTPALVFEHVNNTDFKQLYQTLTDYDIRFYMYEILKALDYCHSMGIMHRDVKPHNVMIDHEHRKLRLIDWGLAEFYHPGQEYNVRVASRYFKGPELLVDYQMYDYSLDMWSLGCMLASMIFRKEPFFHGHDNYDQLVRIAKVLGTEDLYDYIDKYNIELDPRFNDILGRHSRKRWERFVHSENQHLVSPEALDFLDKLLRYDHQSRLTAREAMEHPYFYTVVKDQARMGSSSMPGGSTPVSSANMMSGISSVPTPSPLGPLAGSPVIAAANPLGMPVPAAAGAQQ
Sequence of CK2A1 (CK2α/β) (P67870 whole entry partner, species assumed): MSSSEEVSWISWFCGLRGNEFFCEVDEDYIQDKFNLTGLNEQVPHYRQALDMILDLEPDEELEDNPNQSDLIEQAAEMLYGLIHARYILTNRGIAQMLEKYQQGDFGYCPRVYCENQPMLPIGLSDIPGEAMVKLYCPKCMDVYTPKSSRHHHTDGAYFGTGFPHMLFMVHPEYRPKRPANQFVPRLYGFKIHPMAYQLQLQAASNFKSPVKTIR
Regarding `CCNc1nc(Nc2cc(C#N)cc(N3CC[C@@H](NC(=O)OC)[C@H](OC(=O)CCCN)C3)c2Cl)nn2c(C#N)cnc12` [Example 817, (3R,4R)-1-(2-chloro-5-cyano-3-((7-cyano-4-(ethylamino)imidazo[2,1-f][1,2,4]triazin-2-yl)amino)phenyl)-4-((methoxycarbonyl)amino)piperidin-3-yl 4-aminobutanonate hydrochloride], the IC50 was 5.05 nM.
The value for `N#Cc1cc(Nc2nc(NC3CC3)c3ncc(C#N)n3n2)c(Cl)c(C2CCCC(N3CCOCC3)C2)c1` (racemic) [Example 725, (+/−) cis and trans-2-((2-chloro-5-cyano-3-(3-morpholinocyclohexyl)phenyl)amino)-4-(cyclopropylamino)imidazo[2,1-f][1,2,4]triazine-7-carbonitrile] was 1.39 nM; that for `N#Cc1cc(Nc2nc(NC3CC3)c3ncc(C#N)n3n2)c(Cl)c(N2CCC3NCCC3C2)c1` (racemic) [Example 442, 2-((2-chloro-5-cyano-3-(hexahydro-1H-pyrrolo[3,2-c]pyridin-5(6H)-yl)phenyl)amino)-4-(cyclopropylamino)imidazo[2,1-f][1,2,4]triazine-7-carbonitrile] was 0.77 nM; that for `COCCN1CCC(N2CCN(c3cc(C#N)cc(Nc4nc(NC5CC5)c5ncc(C#N)n5n4)c3Cl)CC2)CC1` [Example 63, 2-((2-chloro-5-cyano-3-(4-(1-(2-methoxyethyl)-4-piperidinyl)-1-piperazinyl)phenyl)amino)-4-(cyclopropylamino) imidazo[2,1-f][1,2,4] triazine-7-carbonitrile] was 0.7 nM.
On to `N#Cc1cc(Nc2nc(NC3CC3)c3ncc(C#N)n3n2)c(Cl)c(N2CC[C@@H](NC(=O)N3CCOCC3)[C@H](O)C2)c1` (racemic) [Example 181, (+/−)-N-((3R,4R)-1-(2-chloro-5-cyano-3-((7-cyano-4-(cyclopropylamino)imidazo[2,1-f][1,2,4]triazin-2-yl)amino)phenyl)-3-hydroxypiperidin-4-yl)morpholine-4-carboxamide], for which the IC50 is 0.88 nM.
For the compound `CCNc1nc(Nc2ccc3c(c2)c(C#N)cn3C2CCN([C@H]3COC[C@@H]3O)CC2)nn2c(C#N)cnc12` [Example 826, 2-((3-cyano-1-(1-((3S,4R)-4-hydroxytetrahydrofuran-3-yl)piperidin-4-yl)-1H-indol-5-yl)amino)-4-(ethylamino)imidazo[2,1-f][1,2,4]triazine-7-carbonitrile], the IC50 was found to be 0.32 nM.
For `CCNC(=O)OCC1CN(c2cc(C#N)cc(Nc3nc(NC4CC4)c4ncc(C#N)n4n3)c2Cl)CCN1C` (stereo not shown) [Example 703, [4-(2-chloro-5-cyano-3-{[7-cyano-4-(cyclopropylamino)imidazo[2,1-f][1,2,4]triazin-2-yl]amino}phenyl)-1-methylpiperazin-2-yl]methyl N-ethylcarbamate], the IC50 was found to be 1.82 nM.
In the case of `CC1(N2CCN(c3cc(OC(F)F)cc(Nc4nc(NC5CC5)c5ncc(C#N)n5n4)c3Cl)CC2)COC1` [Example 561, 2-((2-chloro-5-(difluoromethoxy)-3-(4-(3-methyloxetan-3-yl)piperazin-1-yl)phenyl)amino)-4-(cyclopropylamino)imidazo[2,1-f][1,2,4]triazine-7-carbonitrile], the IC50 is 2.08 nM.
Consider `N#Cc1cc(Nc2nc(NC3CC3)c3ncc(C#N)n3n2)c(Cl)c(N2CCN(C(=O)CN3CCOCC3)CC2)c1` [Example 100, 2-((2-chloro-5-cyano-3-(4-(4-morpholinylacetyl)-1-piperazinyl)phenyl)amino)-4-(cyclopropylamino) imidazo[2,1-f][1,2,4] triazine-7-carbonitrile], for which the IC50 came to 0.55 nM.
The value for `COCCOCCNc1cc(C#N)cc(Nc2nc(NC3CC3)c3ncc(C#N)n3n2)c1Cl` [Example 616, 2-((2-chloro-5-cyano-3-((2-(2-methoxyethoxy)ethyl)amino)phenyl)amino)-4-(cyclopropylamino)imidazo[2,1-f][1,2,4]triazine-7-carbonitrile] was 0.86 nM.
